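Dose response: 5 concentrations. Exposure: 48 h. Format: 96-well plates. Endpoint: linear interpolation; highest concentration if not reached. The concentration for full growth arrest is given as TGI.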
Assays:
Test in all cases: NCI anticancer screen, dose series, 48 h
[1] = system: 786-0 renal
[2] = system: A498 renal
[3] = system: A549 NSCLC
[4] = system: ACHN renal
[5] = system: CAKI-1 renal
[6] = system: CCRF-CEM leukemia
[7] = system: COLO 205 colon
[8] = system: DLD-1 colon
[9] = system: DMS 273 small cell lung
[10] = system: EKVX NSCLC
[11] = system: HCC-2998 colon
[12] = system: HCT-116 colon
[13] = system: HCT-15 colon
[14] = system: HL-60(TB) leukemia
[15] = system: HOP-18 NSCLC
[16] = system: HOP-62 NSCLC
[17] = system: HOP-92 NSCLC
[18] = system: HT29 colon
[19] = system: IGROV1 ovarian
[20] = system: K-562 leukemia
[21] = system: KM12 colon
[22] = system: KM20L2 colon
[23] = system: LOX IMVI melanoma
[24] = system: LXFL 529 NSCLC
[25] = system: M14 melanoma
[26] = system: M19-MEL melanoma
[27] = system: MALME-3M melanoma
[28] = system: MOLT-4 leukemia
[29] = system: NCI-H226 lung
[30] = system: NCI-H23 lung
[31] = system: NCI-H460 lung
[32] = system: NCI-H522 lung
[33] = system: OVCAR-3 ovarian
[34] = system: OVCAR-4 ovarian
[35] = system: OVCAR-5 ovarian
[36] = system: OVCAR-8 ovarian
[37] = system: RPMI-8226 leukemia
[38] = system: RXF 393 renal
[39] = system: RXF-631 renal
[40] = system: SF-268 CNS
[41] = system: SF-295 CNS
[42] = system: SF-539 CNS
[43] = system: SK-MEL-2 melanoma
[44] = system: SK-MEL-28 melanoma
[45] = system: SK-MEL-5 melanoma
[46] = system: SK-OV-3 ovarian
[47] = system: SN12C renal
[48] = system: SNB-19 CNS
[49] = system: SNB-75 CNS
[50] = system: SR leukemia
[51] = system: TK-10 renal
[52] = system: U251 CNS
[53] = system: UACC-257 melanoma
[54] = system: UACC-62 melanoma
[55] = system: UO-31 renal
[56] = system: XF 498 CNS
[57] = system: DMS 114 small cell lung
[58] = system: SNB-78 CNS
[59] = system: SW-620 colon

SMILES: N#Cc1ccc(Sc2ccccc2)cc1C#N
- TGI [1]: 71 µM
- TGI [2]: > 100 µM
- TGI [3]: > 100 µM
- TGI [4]: > 100 µM
- TGI [5]: > 100 µM
- TGI [6]: 43.3 µM
- TGI [7]: > 100 µM
- TGI [8]: > 100 µM
- TGI [9]: 36.6 µM
- TGI [10]: > 100 µM
- TGI [11]: > 100 µM
- TGI [12]: 40.6 µM
- TGI [13]: 30.6 µM
- TGI [14]: > 100 µM
- TGI [15]: > 100 µM
- TGI [16]: > 100 µM
- TGI [17]: 74.4 µM
- TGI [18]: > 100 µM
- TGI [19]: > 100 µM
- TGI [20]: > 100 µM
- TGI [21]: > 100 µM
- TGI [22]: > 100 µM
- TGI [23]: 41.7 µM
- TGI [24]: > 100 µM
- TGI [25]: > 100 µM
- TGI [26]: > 100 µM
- TGI [27]: > 100 µM
- TGI [28]: > 100 µM
- TGI [29]: > 100 µM
- TGI [30]: > 100 µM
- TGI [31]: 46.6 µM
- TGI [32]: > 100 µM
- TGI [33]: > 100 µM
- TGI [34]: > 100 µM
- TGI [35]: > 100 µM
- TGI [36]: > 100 µM
- TGI [37]: 53.9 µM
- TGI [38]: 81 µM
- TGI [39]: > 100 µM
- TGI [40]: 51.6 µM
- TGI [41]: > 100 µM
- TGI [42]: 47.4 µM
- TGI [43]: > 100 µM
- TGI [44]: > 100 µM
- TGI [45]: > 100 µM
- TGI [46]: > 100 µM
- TGI [47]: > 100 µM
- TGI [48]: > 100 µM
- TGI [49]: 52.1 µM
- TGI [50]: 39.9 µM
- TGI [51]: > 100 µM
- TGI [52]: > 100 µM
- TGI [53]: > 100 µM
- TGI [54]: > 100 µM
- TGI [55]: > 100 µM
- TGI [56]: 58 µM

SMILES: CNC(=S)NC(=S)N(C)C
- TGI [1]: > 100 µM
- TGI [2]: > 100 µM
- TGI [3]: > 100 µM
- TGI [4]: > 100 µM
- TGI [5]: > 100 µM
- TGI [8]: > 100 µM
- TGI [57]: > 100 µM
- TGI [10]: > 100 µM
- TGI [11]: > 100 µM
- TGI [12]: > 100 µM
- TGI [13]: > 100 µM
- TGI [14]: 20 µM
- TGI [15]: > 100 µM
- TGI [16]: > 100 µM
- TGI [17]: > 100 µM
- TGI [19]: > 100 µM
- TGI [20]: > 100 µM
- TGI [22]: > 100 µM
- TGI [23]: > 100 µM
- TGI [24]: > 100 µM
- TGI [25]: > 100 µM
- TGI [28]: > 100 µM
- TGI [29]: > 100 µM
- TGI [31]: > 100 µM
- TGI [32]: > 100 µM
- TGI [33]: > 100 µM
- TGI [34]: > 100 µM
- TGI [36]: > 100 µM
- TGI [37]: > 100 µM
- TGI [38]: > 100 µM
- TGI [39]: > 100 µM
- TGI [40]: > 100 µM
- TGI [41]: > 100 µM
- TGI [42]: > 100 µM
- TGI [44]: > 100 µM
- TGI [46]: > 100 µM
- TGI [47]: > 100 µM
- TGI [48]: > 100 µM
- TGI [49]: > 100 µM
- TGI [58]: > 100 µM
- TGI [50]: > 100 µM
- TGI [59]: > 100 µM
- TGI [51]: > 100 µM
- TGI [52]: > 100 µM
- TGI [53]: > 100 µM
- TGI [55]: > 100 µM
- TGI [56]: > 100 µM

SMILES: CCC1(O)C(=O)OCc2c1cc1n(c2=O)Cc2cc3ccc(CO)cc3nc2-1 (stereo not given)
- TGI [1]: 7.51 µM
- TGI [2]: 24.5 µM
- TGI [3]: > 100 µM
- TGI [4]: 11 µM
- TGI [5]: 23.5 µM
- TGI [6]: 0.987 µM
- TGI [7]: 52.3 µM
- TGI [8]: > 100 µM
- TGI [57]: > 100 µM
- TGI [9]: 11.1 µM
- TGI [10]: > 100 µM
- TGI [11]: > 80.2 µM
- TGI [12]: 31.1 µM
- TGI [13]: > 100 µM
- TGI [14]: > 27 µM
- TGI [15]: > 93.9 µM
- TGI [16]: 2.56 µM
- TGI [17]: > 87.3 µM
- TGI [18]: > 81.4 µM
- TGI [19]: > 77.4 µM
- TGI [20]: > 100 µM
- TGI [21]: > 100 µM
- TGI [22]: > 69.9 µM
- TGI [23]: 12.5 µM
- TGI [24]: > 100 µM
- TGI [25]: 33.1 µM
- TGI [26]: 54 µM
- TGI [27]: 59.9 µM
- TGI [29]: 6.58 µM
- TGI [30]: 10.2 µM
- TGI [31]: 22.5 µM
- TGI [32]: 26.8 µM
- TGI [33]: 24.4 µM
- TGI [34]: > 100 µM
- TGI [35]: 78.5 µM
- TGI [36]: > 41.3 µM
- TGI [37]: > 37.3 µM
- TGI [38]: > 44 µM
- TGI [39]: > 100 µM
- TGI [40]: > 100 µM
- TGI [41]: > 79.3 µM
- TGI [42]: 4.51 µM
- TGI [43]: 64.5 µM
- TGI [44]: > 100 µM
- TGI [45]: 11.3 µM
- TGI [46]: > 100 µM
- TGI [47]: > 28.8 µM
- TGI [48]: > 100 µM
- TGI [49]: 9.77 µM
- TGI [50]: 0.298 µM
- TGI [59]: > 100 µM
- TGI [51]: > 100 µM
- TGI [52]: 5.04 µM
- TGI [53]: > 100 µM
- TGI [54]: 7.34 µM
- TGI [55]: 17 µM
- TGI [56]: 16.8 µM
